One test addresses T1, TBK1 (Homo sapiens, UniProt Q9UHD2).
T1 sequence (Q9UHD2 1-729): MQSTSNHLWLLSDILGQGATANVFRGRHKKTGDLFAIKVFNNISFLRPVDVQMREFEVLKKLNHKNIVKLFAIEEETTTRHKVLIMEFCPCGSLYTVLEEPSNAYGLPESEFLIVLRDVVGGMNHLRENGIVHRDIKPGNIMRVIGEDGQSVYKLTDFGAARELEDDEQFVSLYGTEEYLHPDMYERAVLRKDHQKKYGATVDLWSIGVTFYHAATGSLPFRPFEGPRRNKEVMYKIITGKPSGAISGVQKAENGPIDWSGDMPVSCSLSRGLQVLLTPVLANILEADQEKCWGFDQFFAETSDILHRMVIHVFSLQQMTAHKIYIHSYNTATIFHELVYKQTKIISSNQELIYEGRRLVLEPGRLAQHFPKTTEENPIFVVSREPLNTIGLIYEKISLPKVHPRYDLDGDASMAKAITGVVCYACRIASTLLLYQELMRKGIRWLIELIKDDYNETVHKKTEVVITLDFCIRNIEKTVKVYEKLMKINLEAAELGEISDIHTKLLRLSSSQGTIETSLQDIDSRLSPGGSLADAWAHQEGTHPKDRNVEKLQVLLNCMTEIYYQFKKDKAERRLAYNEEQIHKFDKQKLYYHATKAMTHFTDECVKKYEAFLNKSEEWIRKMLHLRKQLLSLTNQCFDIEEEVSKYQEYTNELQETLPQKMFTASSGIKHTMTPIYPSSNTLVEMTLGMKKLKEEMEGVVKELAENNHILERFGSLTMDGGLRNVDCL
Kind of test: TBK Biochemical Assay. To be noted: read-out: TBK1 IC50. Summed up: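 Caliper LabChip mobility-shift readout of substrate and product after 90 min of TBK1 reaction at 25° C and stop-buffer addition. Compounds tested in 1:4 serial dilution over 10 points from 30 uM final at 1% DMSO; staurosporine 10 uM final defines full inhibition.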

Test [1] deals with phosphorylation of the IRF-3 protein in MDA-MB-468 cells. Kind of test: pIRF3 immunocytochemistry cell based assay. To be noted: MDA-MB-468 cells, Poly(I:C) stimulation, read-out: pIRF3 IC50. Summed up: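 After 2 h stimulation with Poly(I:C) (10 ug/ml), following 1 h compound pre-treatment (10-point, 3-fold dilution, top 10 uM), MDA-MB-468 cells were fixed and stained with anti-pIRF3 antibody. pIRF3 fluorescence was normalized to PI staining or cell count on an Acumen cytometer. IC50 curves were derived from this.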

Another test addresses T2, IKKε (Homo sapiens, UniProt Q14164).
T2 sequence (Q14164 1-716): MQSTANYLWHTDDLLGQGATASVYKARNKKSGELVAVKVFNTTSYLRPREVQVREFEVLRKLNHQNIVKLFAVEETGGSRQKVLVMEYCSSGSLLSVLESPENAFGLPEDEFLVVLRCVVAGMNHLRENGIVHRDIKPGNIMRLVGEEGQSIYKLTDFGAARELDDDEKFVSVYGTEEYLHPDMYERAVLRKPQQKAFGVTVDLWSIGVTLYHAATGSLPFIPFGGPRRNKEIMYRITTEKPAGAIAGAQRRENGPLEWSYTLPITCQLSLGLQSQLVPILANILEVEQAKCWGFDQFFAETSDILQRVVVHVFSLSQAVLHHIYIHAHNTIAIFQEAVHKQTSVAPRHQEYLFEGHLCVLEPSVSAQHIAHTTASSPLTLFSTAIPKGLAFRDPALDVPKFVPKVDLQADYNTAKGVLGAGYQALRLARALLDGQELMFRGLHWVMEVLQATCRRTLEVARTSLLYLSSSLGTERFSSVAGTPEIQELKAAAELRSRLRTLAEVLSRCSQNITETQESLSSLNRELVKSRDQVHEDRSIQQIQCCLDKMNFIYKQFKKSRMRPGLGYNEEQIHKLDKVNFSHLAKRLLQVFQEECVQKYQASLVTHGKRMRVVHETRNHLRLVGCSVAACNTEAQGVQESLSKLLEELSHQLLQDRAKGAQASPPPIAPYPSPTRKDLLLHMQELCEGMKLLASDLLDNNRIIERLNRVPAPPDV
Kind of test: IKKe Biochemical Assay. The note with it: read-out: IKKε IC50. Summed up:
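Activity was measured as mobility-shift separation of phosphorylated from unphosphorylated substrate on a LabChip EZ Reader. Compound was titrated from 30 uM final in 10 points, 1:4 steps, with 1% DMSO, and enzyme plus substrate reacted 90 min at 25° C before stop buffer. Control wells held 10 uM staurosporine.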

Structures can show the parent of a compound that is named as a salt. Where two headings read alike, the source gives them in different places.

A word on the IC50: it is the concentration needed to halve the response being measured.

For the compound `N#Cc1cc(-c2ccnc3cc(-c4cccc(C(=O)NC5CN6CCC5CC6)c4)oc23)ccc1OC1CCOCC1` (stereo not drawn) [Compound 143], the IC50 is less than 100 nM at TBK1, 100 to 1000 nM in test [1] (Homo sapiens) and less than 100 nM on IKKε.

Consider `COc1cc(C(=O)NC2CN3CCC2CC3)ccc1-c1cc2nccc(-c3ccc(OC4CCOCC4)c(C#N)c3)c2o1` (stereo not drawn) [Compound 79, N-(1-Aza-bicyclo[2.2.2]oct-3-yl)-4-{7-[3-cyano-4-(tetrahydro-pyran-4-yloxy)-phenyl]-furo[3,2-b]pyridin-2-yl}-3-methoxy-benzamide], for which the IC50 at TBK1 was less than 100 nM; in test [1] (Homo sapiens), 100 to 1000 nM; at IKKε it was less than 100 nM.

Regarding `COc1cc(C(=O)N(C)C)ccc1-c1cc2nccc(-c3ccc(O[C@@H]4CCCNC4)c(C#N)c3)c2o1` [Compound 163, 4-{7-[3-Cyano-4-((R)-piperidin-3-yloxy)-phenyl]-furo[3,2-b]pyridin-2-yl}-3-methoxy-N,N-dimethyl-benzamide], the IC50 (on TBK1; in test [1] (Homo sapiens); on IKKε) was 100 to 1000 nM in each case.

With `COc1cc(C(=O)N(C)C)ncc1-c1cc2nccc(-c3cnc(OC4CCOCC4)c(C#N)c3)c2o1` [Compound 388, 5-[7-[5-cyano-6-(oxan-4-yloxy)pyridin-3-yl]furo[3,2-b]pyridin-2-yl]-4-methoxy-N,N-dimethylpyridine-2-carboxamide], the values for the IC50 (at TBK1; in test [1] (Homo sapiens); on IKKε) were less than 100 nM, 100 to 1000 nM and less than 100 nM, respectively.

Regarding `COc1cc(C(=O)N2CC[C@@H](N(C)C)C2)ccc1-c1cc2nccc(-c3ccc(N4CC[C@H](F)C4)c(C#N)c3)c2o1` [Compound 33, 5-{2-[4-((R)-3-Dimethylamino-pyrrolidine-1-carbonyl)-2-methoxy-phenyl]-furo[3,2-b]pyridin-7-yl}-2-((S)-3-fluoro-pyrrolidin-1-yl)-benzonitrile], the IC50 at TBK1 is less than 100 nM; in test [1] (Homo sapiens) it was 100 to 1000 nM; at IKKε, less than 100 nM.

On to `COc1cc(C(=O)NC2CCNCC2)ccc1-c1cc2nccc(-c3ccc(OC4CCOCC4)c(C#N)c3)c2o1` [Compound 62, 4-{7-[3-Cyano-4-(tetrahydro-pyran-4-yloxy)-phenyl]-furo[3,2-b]pyridin-2-yl}-3-methoxy-N-piperidin-4-yl-benzamide hydrochloride], for which the IC50 at TBK1 is less than 100 nM; in test [1] (Homo sapiens) it was 100 to 1000 nM; at IKKε it was less than 100 nM.

For the compound `COc1cc(C(=O)N2CCN(C)CC2)ncc1-c1cc2nccc(-c3ccc(N4CC[C@H](F)C4)c(C#N)c3)c2o1` [Compound 463, 2-((S)-3-Fluoro-pyrrolidin-1-yl)-5-{2-[4-methoxy-6-(4-methyl-piperazine-1-carbonyl)-pyridin-3-yl]-furo[3,2-b]pyridin-7-yl}-benzonitrile], the IC50 (on TBK1; in test [1] (Homo sapiens); at IKKε) was less than 100 nM throughout.

Regarding `COc1cc(C(=O)N(C)C)ccc1-c1cc2nccc(-c3ccc(NC4CCOCC4F)c(C#N)c3)c2o1` (stereo not drawn) [Compound 78], the figures for the IC50 (on TBK1; in test [1] (Homo sapiens); at IKKε) were less than 100 nM, 100 to 1000 nM and less than 100 nM, respectively.

As for `COc1cc(C(=O)N2CCCC2)cnc1-c1cc2nccc(-c3ccc(OC4CCOCC4)c(C#N)c3)c2o1` [Compound 416, 5-(2-[3-methoxy-5-[(pyrrolidin-1-yl)carbonyl]pyridin-2-yl]furo[3,2-b]pyridin-7-yl)-2-(oxan-4-yloxy)benzonitrile hydrochloride], the IC50 on TBK1 was less than 100 nM; in test [1] (Homo sapiens) it was 100 to 1000 nM; on IKKε, less than 100 nM.

For `COc1cc(C(=O)N2CCN(C)CC2)cnc1-c1cc2nccc(-c3ccc(N4CC[C@H](F)C4)c(C#N)c3)c2o1` [Compound 461, 2-(3(S)-fluoropyrrolidin-1-yl)-5-(2-[3-methoxy-5-[(4-methylpiperazin-1-yl)carbonyl]pyridin-2-yl]furo[3,2-b]pyridin-7-yl)benzonitrile], the IC50 (at TBK1; in test [1] (Homo sapiens); on IKKε) was less than 100 nM each time.

`COc1cc(C(=O)N2CCC(O)C2)ccc1-c1cc2nccc(-c3ccc(OC4CCOCC4)c(C#N)c3)c2o1` (stereo not drawn) [Compound 492, 5-{2-[4-(3-Hydroxy-pyrrolidine-1-carbonyl)-2-methoxy-phenyl]-furo[3,2-b]pyridin-7-yl}-2-(tetrahydro-pyran-4-yloxy)-benzonitrile]: the IC50 was less than 100 nM at TBK1, 100 to 1000 nM in test [1] (Homo sapiens) and less than 100 nM at IKKε.

`COc1cc(C(=O)N2CC[C@@H](N(C)C)C2)cnc1-c1cc2nccc(-c3ccc(N4CCC(F)C4)c(C#N)c3)c2o1` (stereo partly drawn) [Compound 454, 5-[2-(5-[[(3R)-3-(dimethylamino)pyrrolidin-1-yl]carbonyl]-3-methoxypyridin-2-yl)furo[3,2-b]pyridin-7-yl]-2-(3-fluoropyrrolidin-1-yl)benzonitrile]: the results for the IC50 (at TBK1; in test [1] (Homo sapiens); on IKKε) were less than 100 nM, 100 to 1000 nM and less than 100 nM, respectively.

`COc1cc(C(=O)N(C)C)ccc1-c1cc2nccc(-c3cc(C#N)c(OC4CCOCC4)cn3)c2o1` [Compound 161, 4-{7-[4-Cyano-5-(tetrahydro-pyran-4-yloxy)-pyridin-2-yl]-furo[3,2-b]pyridin-2-yl}-3-methoxy-N,N-dimethyl-benzamide]: the IC50 on TBK1 lay in the range of 100 to 1000 nM; in test [1] (Homo sapiens), 1000 to 5000 nM; on IKKε, 100 to 1000 nM.

For the compound `COc1cc(C(=O)N[C@H]2[C@@H]3C[C@H]2CN(C)C3)ccc1-c1cc2nccc(-c3ccc(OC4CCOCC4)c(C#N)c3)c2o1` (single isomer, unassigned) [Compound 366], the IC50 is less than 100 nM on TBK1, 100 to 1000 nM in test [1] and less than 100 nM on IKKε.

For `COc1cc(C(=O)N(C)C)ccc1-c1cc2nccc(-c3ccc(NC4CCOC4)c(C#N)c3)c2o1` (stereo not drawn) [Compound 7], the IC50 is less than 100 nM on TBK1, 100 to 1000 nM in test [1] (Homo sapiens) and less than 100 nM at IKKε.

`COc1cc(C(=O)NC2(CO)CCN(C)C2)ccc1-c1cc2nccc(-c3ccc(OC4CCOCC4)c(C#N)c3)c2o1` (stereo not drawn) [Compound 345, 4-[7-[3-cyano-4-(oxan-4-yloxy)phenyl]furo[3,2-b]pyridin-2-yl]-N-[3-(hydroxymethyl)-1-methylpyrrolidin-3-yl]-3-methoxybenzamide]: the values for the IC50 (on TBK1; in test [1] (Homo sapiens); on IKKε) were less than 100 nM, 100 to 1000 nM and less than 100 nM, respectively.

Turning to `COc1cc(C(=O)N(C)C)cnc1-c1cc2nccc(-c3ccc(OC4CCOCC4)c(C#N)n3)c2o1` [Compound 316, 6-[7-[6-cyano-5-(oxan-4-yloxy)pyridin-2-yl]furo[3,2-b]pyridin-2-yl]-5-methoxy-N,N-dimethylpyridine-3-carboxamide], the values for the IC50 (at TBK1; in test [1] (Homo sapiens); on IKKε) were less than 100 nM, 100 to 1000 nM and less than 100 nM, respectively.

As for `COc1cc(C(=O)N2CC[C@@H](N(C)C)C2)cnc1-c1cc2nccc(-c3ccc(N4CC[C@@H](F)C4)c(C#N)c3)c2o1` [Compound 456, 5-[2-(5-[[(3R)-3-(dimethylamino)pyrrolidin-1-yl]carbonyl]-3-methoxypyridin-2-yl) (R)-furo[3,2-b]pyridin-7-yl]-2-(3-fluoropyrrolidin-1-yl)benzonitrile], the IC50 (at TBK1; in test [1] (Homo sapiens); on IKKε) was less than 100 nM each time.
